Assay results published in patent US20080227766A1, “Synergistic, Silver-Containing Biocide Composition” (THOR GMBH, priority 2005, published 2008).

How the values were obtained:
[1] = system: Staphylococcus aureus (ATCC 6538); test: MIC and synergy index (Kull) in Müller-Hinton broth; format: cell-based
Protocol: (§1) The synergism of a combination of silver with 1,2-benzisothiazolin-3-one (BIT) was tested. Silver was used in the form of silver nitrate. […] The test organism used was the gram-negative bacterium Pseudomonas aeruginosa (ATCC 9027). For the test, aqueous mixtures with different concentrations of silver nitrate and BIT were prepared and were tested for their activity on Pseudomonas aeruginosa. The aqueous mixtures further included a Müller-Hinton broth (commercial product “Merck Nr. 10393”) as nutrient medium. The cell density of Pseudomonas aeruginosa was 10^6 microbes/ml.
[…] Each sample was incubated at 120 rpm on an incubation shaker. […] Growth was shown through a clouding of the nutrient medium. In this way, the minimum inhibitory concentrations (MICs) of the two actives, individually and in combination, were ascertained. The MIC is the concentration at which there is no longer any clouding of the nutrient medium.
(§2) The synergism arising was represented numerically by calculation of the synergy index (SI). The calculation was made in accordance with the commonplace method of F. C. Kull et al., Applied Microbiology, vol. 9 (1961), p. 538. There the SI is calculated according to the following formula:
synergy index SI=Qa/QA+Qb/QB.
When this formula is applied to the biocide system BIT+Ag under test here, the parameters in the formula are defined as follows: • Qa=concentration of BIT in the biocide mixture of BIT+Ag • QA=concentration of BIT as a single biocide • Qb=concentration of Ag in the biocide mixture of BIT+Ag • QB=concentration of Ag as a single biocide
If the synergy index has a value of more than 1, this means that antagonism is present. If the synergy index adopts a value of 1, this means that the two biocides have an additive effect.
The experiment from example 2 was repeated in the same way but using the gram-positive test organism Staphylococcus aureus (ATCC 6538) instead of Pseudomonas aeruginosa.
Example 3 was repeated in the same way, but with N-methyl-1,2-benzisothiazolin-3-one (MBIT) as the biocidal component.
Example 3 was repeated, but using N-butyl-1,2-benzisothiazolin-3-one (BBIT) as the biocidal component.

[2] = system: Pseudomonas aeruginosa (ATCC 9027); test: as above; format: cell-based; conditions: 72 h/25° C.
Protocol: as §1
The incubation time was 72 h at 25° C. Each sample was incubated at 120 rpm on an incubation shaker. After 72 h the samples were inspected for growth of Pseudomonas aeruginosa. Growth was shown through a clouding of the nutrient medium. In this way, the minimum inhibitory concentrations (MICs) of the two actives, individually and in combination, were ascertained. The MIC is the concentration at which there is no longer any clouding of the nutrient medium.
as §2
synergy index SI=Qa/QA+Qb/QB. […]

Compound: [Ag] [Ag, silver]
- MIC at Ag concentration Qb ([1]; 72 h/25° C., Ag in mixture BIT + Ag (or Ag alone)): 19.1 ppm
- MIC at Ag concentration Qb ([1]; 96 h/25° C., Ag in mixture BBIT + Ag (or Ag alone)): 25.4 ppm
- MIC at Ag concentration Qb ([1]; 96 h/25° C., Ag in mixture MBIT + Ag (or Ag alone)): 27 ppm
- MIC at Ag concentration Qb ([2]; Ag (from silver nitrate) in mixture BIT + Ag (or Ag alone)): 25.4 ppm

Compound: CCCCn1sc2ccccc2c1=O [BBIT, N-butyl-1,2-benzisothiazolin-3-one]
- MIC at BBIT concentration Qa ([1]; 96 h/25° C., BBIT in mixture BBIT + Ag (or BBIT alone)): 20 ppm

Compound: O=c1[nH]sc2ccccc12 [BIT, 1,2-benzisothiazolin-3-one]
- MIC at BIT concentration Qa ([1]; 72 h/25° C., BIT in mixture BIT + Ag (or BIT alone)): 20 ppm
- MIC at BIT concentration Qa ([2]; BIT in mixture BIT + Ag (or BIT alone)): 40 ppm

Compound: Cn1sc2ccccc2c1=O [MBIT, N-methyl-1,2-benzisothiazolin-3-one]
- MIC at MBIT concentration Qa ([1]; 96 h/25° C., MBIT in mixture MBIT + Ag (or MBIT alone)): 20 ppm
